Earlier results, collected in patent publication US20240390332A1, “Combination treatment and/or prevention of renal diseases and/or hypertension in non-human mammals comprising one or more SGLT-2 inhibitors and telmisartan” (BOEHRINGER INGELHEIM VETMEDICA GMBH, priority 2023, published 2024).

Tested on: human patients suffering from diabetes mellitus type II
Details: baseline to week 12, empagliflozin 10 mg and 25 mg groups vs placebo

In the case of `OC[C@H]1O[C@@H](c2ccc(Cl)c(Cc3ccc(O[C@H]4CCOC4)cc3)c2)[C@H](O)[C@@H](O)[C@@H]1O` [empagliflozin, Empagliflozin], the “mean 24-hour systolic BP, placebo-subtracted mean difference” value is given as “up to −4.16 mmHg”.
